Measured values from patent US6469052B2, “Compounds for the photodecontamination of pathogens in blood” (Cerus Corporation, priority 1993, dated 2002).
Where two headings read alike, the source gives them in different places.

Columns and labels:
[1] = tested on: Salmonella typhimurium TA1537; assay: Ames assay (dark mutagenicity), strain TA1537
Excerpt: (§1) The second property that is important in testing a compound for use in methods of the present invention is mutagenicity. The most widely used mutagen/carcinogen screening assay is the Ames test. This assay is described by D. M. Maron and B. N. Ames in Mutation Research 113: 173 ( 1983) and a specific screen is described in detail in Example 17, below. The Ames test utilizes several unique strains of Salmonella typhimurium that are histidine- dependent for growth and that lack the usual DNA repair enzymes. The frequency of normal mutations that render the bacteria independent of histidine (i.e., the frequency of spontaneous revertants) is low. The test allows one to evaluate the impact of a compound on this revertant frequency.
(§2) In this example the compounds of the present invention are tested for their dark mutagenicity using an Ames assay. The procedures used for the Salmonella mutagenicity test as described in detail by Maron and Ames were followed exactly. Maron, D. M. and B. N. Ames, Mutation Research 113: 173 ( 1983). A brief description for each procedure is given here. The tester strains TA97a, TA98, TA100, TA102, TA1537 and TA1538 were obtained from Dr. Ames. TA97a, TA98, TA1537 and TA1538 are frameshift tester strains. TA100 and TA102 are base-substitution tester strains. Upon receipt each strain was cultured under a variety of conditions to confirm the genotypes specific to the strains.
(§3) The first tests done with the strains were to determine the range of spontaneous reversion for each of the strains. With each mutagenicity experiment the spontaneous reversion of the tester strains to histidine independence was measured and expressed as the number of spontaneous revertants per plate. This served as the background controls.
(§4) For all experiments, the pre-incubation procedure was used. In this procedure one vial of each tester strain was thawed and 20 μL of this culture was added to 6 mL of Oxoid Nutrient Broth #2. This solution was allowed to shake for 10 hours at 37° C. In the pre-incubation procedure, 0.1 mL of this overnight culture was added to each of the required number of sterile test tubes. To half of the tubes 0.5 mL of a 10% S-9 solution containing Aroclor 1254 induced rat liver extract (Molecular Toxicology Inc., Annapolis, Md.), and MgCl2, KCl, glucose-6-phosphate, NADP, and sodium phosphate buffer (Sigma, St. Louis, Mo.) were added. To the other half of the tubes 0.5 mL of 0.2M sodium phospate buffer, pH 7.4, was used in place of the S-9 mixture (the -S9 samples). Finally 0.1 mL of the test solution containing either 0, 0.1, 0.5, 1, 5, 10, 50, 100, 250, or 500 μg/mL of the test compound was added. The 0.7 mL mixture was vortexed and then pre-incubated while shaking for 20 minutes at 37° C. After shaking, 2 mL of molten top agar supplemented with histidine and biotin were added to the 0.7 mL mixture and immediately poured onto a minimal glucose agar plate (volume of base agar was 20 mL). The top agar was allowed 30 minutes to solidify and then the plates were inverted and incubated for 44 hours at 37° C. After incubation the number of revertant colonies on each plate were counted. […] (“n” represents the number of replicates performed for each data point.)
(§5) Maron and Ames (1983) describe the conflicting views with regard to the statisical treatment of data generated from the test.

[2] = tested on: Salmonella typhimurium TA1538; assay: Ames assay (dark mutagenicity), strain TA1538
Excerpt: as §1, §2, §3, §4, §5

[3] = tested on: Chinese hamster ovary (CHO) cells; assay: In vitro genotoxicity screen in CHO cells; format: cell-based; settings: approximately 3 hours exposure in the dark, dilutions 1-1000 μg/ml
Excerpt: The positive control was methylmethane sulfonate.
Coverslips were mounted with Permount.

[4] = tested on: Salmonella typhimurium TA102; assay: Ames assay (dark mutagenicity), strain TA102
Excerpt: as §1, §2, §3, §4, §5

[5] = tested on: Salmonella typhimurium TA97a
Excerpt: as §1, §2, §3, §4, §5

[6] = tested on: Duck Hepatitis B Virus (DHBV); assay: Inactivation of DHBV in platelet concentrate, PCR amplification readout; settings: 5J/CM^2 UVA
Protocol: This example describes the protocol for inactivation of Duck Hepatitis B Virus (DHBV), a model for Hepatitis B Virus, using compounds of the present invention. DHBV in duck yolk was added to platelet concentrate (PC) to a final concentration of 2×10^7 particles per mL and mixed by gentle rocking for ≧15 min. […] Samples, including controls without added psoralen, were irradiated with 5J/CM^2 UVA, with mixing at 1 J/cm^2 increments. After irradiation, leukocytes and platelets were separated from virus by centrifugation. […] Samples were extracted with phenol-chloroform and chloroform, followed by ethanol precipitation. […] PCR amplicons were generated using primers pairs DCD03/DCD05 (127 bp), DCD03/DCD06 (327 bp) and DCD03/DCD07 (1072 bp). PCR was performed in a standard PCR buffer containing 0.2 mM each deoxyribonucleoside 5′-triphosphates (dATP, dGTP, dCTP, and dTTP), […], and 0.5 units Taq polymerase per […]. 30 cycles of amplification were performed with the following thermal profile: 95° C. 30 sec, 60° C. 30 sec, 72° C. 1 min. The amplification was followed by a 7 min incubation at 72° C. to yield full length products. […] was added at an amount of […] in order to detect and quantify the resulting products. Products were separated by electrophoresis on denaturing polyacrylamide slab gels and counted. The absence of signal in a given reaction was taken to indicate effective inactivation of DHBV.

[7] = tested on: Salmonella tester strains TA97a, TA98, TA100, TA102, TA1537 and TA1538; assay: Ames assay, overall assessment over the tester strains
Excerpt: as §1, §2, §3
For all experiments, the pre-incubation procedure was used. In this procedure one vial of each tester strain was thawed and 20 μL of this culture was added to 6 mL of Oxoid Nutrient Broth #2. This solution was allowed to shake for 10 hours at 37° C. In the pre-incubation procedure, 0.1 mL of this overnight culture was added to each of the required number of sterile test tubes. To half of the tubes 0.5 mL of a 10% S-9 solution containing Aroclor 1254 induced rat liver extract (Molecular Toxicology Inc., Annapolis, Md.), and MgCl2, KCl, glucose-6-phosphate, NADP, and sodium phosphate buffer (Sigma, St. Louis, Mo.) were added. To the other half of the tubes 0.5 mL of 0.2M sodium phospate buffer, pH 7.4, was used in place of the S-9 mixture (the -S9 samples). Finally 0.1 mL of the test solution containing either 0, 0.1, 0.5, 1, 5, 10, 50, 100, 250, or 500 μg/mL of the test compound was added. […] After incubation the number of revertant colonies on each plate were counted. […]

[8] = tested on: HIV-1; settings: concentrations of 64 μM of compound or higher
Protocol: Pathogen inactivation efficiency of several compounds of the present invention was evaluated by examining the ability of the compounds to inactivate cell-free virus (HIV). Inactivation of cell-free HIV was performed as follows.
As in the R17 assay, small aliquots of the compounds listed in TABLES 10 and 11, below, at the concentrations listed in the table, were added to stock HIV-1 to a total of 0.5 mL. The stock HIV (10^5-10^7 plaque forming units/mL) was in DMEM/15% FBS. […] Controls included HIV-1 stock only, HIV-1 plus UVA only, and HIV-1 plus the highest concentration of each psoralen tested, with no UVA. Post irradiation, all samples were stores frozen at −70° C. until assayed for infectivity by a microtiter plaque assay. Aliquots for measurement of residual HIV infectivity in the samples treated with a compound of the present invention were withdrawn and cultured.
Residual HIV infectivity was assayed using an MT-2 infectivity assay. […] After 24 to 48 hours, the red fluorescence-stained microplaques were visualized by placing the plates on an 8,000 μW/cm^2 304 nm UV light box (Fotodyne, Inc., New Berlin, Wis.). The plaques were counted at a magnification of ×20 to ×25 through a stereomicroscope.

[9] = tested on: Salmonella typhimurium TA100
Excerpt: as §1, §2, §3, §4, §5

[10] = tested on: human platelets; settings: 100 μM compound, 5 Joules/cm^2, 5 days storage
Protocol: (§6) To measure the effects of the present compounds and methods of decontamination on platelet function using these four indicators, four samples were prepared for each compound tested, two control samples and two containing compound. Three units of human platelets were obtained from the Sacramento Blood Center, Sacramento, Calif. These were each transferred under sterile conditions to 50 ml centrifuge tubes, then aliquots of each unit were transferred into a second set of 50 ml sterile centrifuge tubes. To each centrifuge tube containing platelet concentrate (PC), an aliquot of compound stock was added to reach a final concentration of 100 μM of compound. […] The samples were pipetted gently up and down to mix. Then aliquots (either 3 ml or 8 ml) of each sample was transferred to two sterile Teflon™ Medi-bags™ (American Fluoroseal Co., Silver Springs, Md.) (presently owned by The West Company, Lionville, Pa.). Samples were treated in one of two different sized bags, having either 3 ml or 8 ml capacity. […] For each compound tested, two control samples without compound were prepared by again removing aliquots of platelet concentrate (17 ml if using an 8 ml bag, […] if using a 3 ml bag) from the same one of the first set of 50 ml centrifuge tubes from which the compound sample was drawn, and dividing into Medibags, as before. One of each pair of Medibags containing a compound, and one of each pair of control Medibags, were illuminated for 5 Joules/cm^2 on the device described in Example 1, above. Then all experimental and control Medibags were placed on a platelet shaker for storage for 5 days. The same experiments were repeated several times to obtain more statistically meaningful data, as represented by “n”, the number of data points represented, in the graphs of FIGS. 21-24, discussed below.
A Sysmex cell counter was used to measure platelet count in the platelet samples. Samples were diluted 1:3 in blood bank saline.

[11] = tested on: GMP-140 (p-selectin) on platelets; assay: Platelet function: GMP-140 expression (flow cytometry, CD62); format: cell-based, human; settings: 100 μM compound, 5 Joules/cm^2, 5 days storage
Protocol: as §6

[12] = tested on: mouse reticulocytes; settings: increased dose levels, male Balb/c mice, tail vein
Protocol: Male Balb/c mice were then injected with 0.1 ml of a compound solution via the tail vein. At least 3 mice were injected per dose level. Saline only was used as a negative control. For a positive control, cyclophosphamide (cycloPP) was administered at a dose of 30 mg/kg. In the experimental group, the injections were repeated once per day for four days. In the positive control group, the sample was administered only once, on day three. On day 5, several microliters of blood were withdrawn from each subject and smeared on a glass slide. Cells were fixed in absolute methanol and stored in a slide rack.
For analysis, cells were stained with acridine orange and visualized under a fluorescence microscope by counting: (i) the number of reticulocytes per 5000 erythrocytes; and (ii) the number of micronucleated reticulocytes per 1000 reticulocytes. Reticulocytes were distinguished by their red fluorescence due to the presence of RNA. Micronuclei were distinguished by their green fluorescence due to the presence of DNA. The percentage of reticulocytes (%PCE) was then calculated. A decrease in the frequency of […] in the percentage of reticulocytes, is an indication of bone marrow toxicity. The percentage of reticulocytes with micronuclei (%PCE with MN) was also calculated. An increase in %PCE with MN is a measure of clastogenicity.
After initial results were determined, the experiment was repeated using increased dose levels, until: (i) Micronucleus formation was seen; or (ii) Bone marrow toxicity was observed; or (ii) The lethal dose was reached; or (iv) A dose of 5 g/kg was administered.

[13] = tested on: Salmonella typhimurium TA98; assay: Ames assay (dark mutagenicity), strain TA98
Excerpt: as §1, §2, §3, §4, §5

Cc1oc2c(C)c3oc(=O)cc(C)c3cc2c1CN [AMT, 4′-Aminomethyl-4,5′,8-trimethylpsoralen, reference compound]
dose at which frameshift mutagenicity was shown ([1]; TA1537): 5 μg/plate | revertants per plate ([1]; TA1537 +S9, 100 μg/plate): 500 | dose at which frameshift mutagenicity was shown ([2]; TA1538): 1 μg/plate | revertants per plate ([2]; TA1538 −S9, 0.1 μg/plate): 3 | revertants per plate ([2]; TA1538 −S9, 0.5 μg/plate): 4 | revertants per plate ([2]; TA1538 −S9, 1 μg/plate): 4 | revertants per plate ([2]; TA1538 −S9, 5 μg/plate): 13 | revertants per plate ([2]; TA1538 −S9, 10 μg/plate): 14 | genotoxic (toxic) concentration [3]: 30 µg/mL | revertants per plate ([4]; TA102 +S9, 0.1 μg/plate): −20 | revertants per plate ([4]; TA102 +S9, 0.5 μg/plate): 5 | revertants per plate ([4]; TA102 +S9, 1 μg/plate): −17 | revertants per plate ([4]; TA102 +S9, 5 μg/plate): 51 | revertants per plate ([5]; TA97a −S9, 0.1 μg/plate): 14 | revertants per plate ([5]; TA97a −S9, 0.5 μg/plate): 9 | revertants per plate ([5]; TA97a −S9, 1 μg/plate): 54 | revertants per plate ([5]; TA97a −S9, 5 μg/plate): 73 | PCR amplification of the 1072 bp DHBV amplicon [6]: a signal could be detected | PCR amplification of the 1072 bp DHBV amplicon ([6]; 70 and 100 mM levels): inhibited PCR amplification

Cc1oc2c(C)c3oc(=O)cc(C)c3cc2c1CCN [Compound 3, 4′-(2-aminoethyl)-4,5′,8-trimethylpsoralen]
revertants per plate ([2]; TA1538 −S9, 5 μg/plate): 0 | revertants per plate ([2]; TA1538 −S9, 10 μg/plate): −6 | mutagenicity (overall) ([7]; strains tested: TA100 and TA1538, ±S9, 5 and 10 μg/plate): no mutagenicity | HIV inactivation activity compared with AMT [8]: significantly more active than AMT | revertants per plate ([9]; TA100 +S9, 5 μg/plate): −19 | revertants per plate ([9]; TA100 +S9, 10 μg/plate): 8

Cc1cc(=O)oc2c(C)c3oc(CNCCCCN)c(C)c3cc12 [Compound 17, 5′-(6-amino-2-aza)hexyl-4,4′,8-trimethylpsoralen]
platelet count compared with samples treated with light alone [10]: higher platelet count than samples treated with light alone | GMP-140 expression: sample treated with light and psoralen (PCD) versus day 5 untreated control (D5) [11]: little or no difference | outcome of dose escalation in the micronucleus assay [12]: the acutely lethal dose was reached before there were any signs of bone marrow toxicity or micronucleus formation

Cc1cc(=O)oc2c(C)c3oc(COCCN)c(C)c3cc12 [Compound 18, 5′-(4-amino-2-oxa)butyl-4,4′,8-trimethylpsoralen]
revertants per plate ([1]; TA1537 +S9, 10 μg/plate): 8 | revertants per plate ([1]; TA1537 +S9, 50 μg/plate): 6 | revertants per plate ([1]; TA1537 +S9, 100 μg/plate): 26 | revertants per plate ([1]; TA1537 +S9, 200 μg/plate): 42 | revertants per plate ([1]; TA1537 −S9, 10 μg/plate): 21 | revertants per plate ([1]; TA1537 −S9, 50 μg/plate): 303 | revertants per plate ([1]; TA1537 −S9, 100 μg/plate): 390 | revertants per plate ([1]; TA1537 −S9, 200 μg/plate): 225 | platelet count compared with samples treated with light alone [10]: higher platelet count than samples treated with light alone | mutagenic response compared with AMT ([7]; in the absence of S9): higher in the absence of S9, but still was significantly below that of AMT | mutagenic response ([7]; in the presence of S9 in strains TA 9o and TA 1537): only a weak response at high concentrations | GMP-140 expression: sample treated with light and psoralen (PCD) versus day 5 untreated control (D5) [11]: notable increase above the control | outcome of dose escalation in the micronucleus assay [12]: the acutely lethal dose was reached before there were any signs of bone marrow toxicity or micronucleus formation | revertants per plate ([13]; TA98 +S9, 10 μg/plate): 8 | revertants per plate ([13]; TA98 +S9, 50 μg/plate): 6 | revertants per plate ([13]; TA98 +S9, 100 μg/plate): 26 | revertants per plate ([13]; TA98 +S9, 200 μg/plate): 42 | revertants per plate ([13]; TA98 −S9, 10 μg/plate): 21 | revertants per plate ([13]; TA98 −S9, 50 μg/plate): 303 | revertants per plate ([13]; TA98 −S9, 100 μg/plate): 390 | revertants per plate ([13]; TA98 −S9, 200 μg/plate): 225
